As to `COc1ccc2c(C(F)(F)F)c(CC(=O)O)c(=O)oc2c1`, the melting point (commonly the temperature, or range, at which the solid turns liquid) is 198.5 to 200 °C.

(Values after patent US6756209B1, “7-Alkoxycoumarins as CYP2C9 substrates and activity assay” (SmithKline Beecham p.l.c., priority 1998, dated 2004).)
